According to US20110183978A1, “Phenylpyri(mi)dinylazoles” (Bayer CropScience AG, priority 2009, published 2011):
Where two headings read alike, the source gives them in different places.

Assays:
[1] = physchem
[2] = tested on: Fusarium proliferatum; test: Example I: production of fumonisin FB1 by Fusarium proliferatum (microtitre plates); assay type: cell-based; details: 120 h
[3] = tested on: Sphaerotheca fuliginea; test: Example L: in vivo test on Sphaerotheca fuliginea (powdery mildew on cucumber/protective); details: Podosphaera fuliginea, 168 h, cucumber, protective, assessment 7 days after inoculation, read-out: % Wirkungsgrad
Procedure: (§1) Solvent: 49 parts by weight N,N-dimethylformamide Emulsifier: 1 part by weight alkylaryl polyglycol ethers For the preparation of a suitable active substance preparation, 1 part by weight of active substance is mixed with the stated quantities of solvent and emulsifier and the concentrate is diluted to the desired concentration with water. For the testing for protective activity, young cucumber plants are sprayed with the active substance preparation at the stated application dosage. One day after the treatment, the plants are inoculated with a spore suspension of Sphaerotheca fuliginea. Next, the plants are placed in a greenhouse at 70% relative atmospheric humidity and a temperature of 23° C. 7 days after the inoculation, the assessment takes place.

[4] = tested on: Fusarium graminearum; test: microbe, parasite or virus in culture; assay type: cell-based
[5] = tested on: Alternaria solani; test: Example M: in vivo test on Alternaria solani (leaf blotch disease/tomato/protective); details: 168 h, tomato, protective, 500 ppm active substance, assessed 7 days after inoculation, read-out: % Wirkungsgrad (activity level)
Procedure: as §1, with “tomato” for “cucumber”, “One day after the treatment, the plants are inoculated with a spore suspension of Sphaerotheca fuliginea. Next, the plants are placed in a greenhouse at 70% relative atmospheric humidity and a temperature of 23° C.” left out

[6] = LogPA (logP of the stated pure compound or, in a mixture, of the main isomer, 1-substituted 3-aryl-1H-pyrazole)
[7] = Fusarium proliferatum growth, OD 620, 5 days, read-out: % Inhibition des Pilzwachstums bei 50 μM
[8] = Fusarium proliferatum, 5 days at 20° C., HPLC-MS/MS, read-out: % Inhibition der FB1 produktion bei 50 μM
[9] = 72 h, read-out: % Inhibition des Pilzwachstums bei 50 μM
[10] = 168 h, read-out: % Inhibition der DON/AcDON produktion bei 50 μM

Compound	chromatographic logP [1, 6]	inhibition at 50 µM [2, 7]	inhibition at 50 µM [2, 8]	chromatographic logP ([1]; LogPA)	pest or weed control at 500 ppm [3]	inhibition at 50 µM [4, 9]	inhibition at 50 µM [4, 10]	pest or weed control at 500 ppm [5]
FC(F)(F)c1cccc(-c2nn(C3CCCCO3)cc2-c2ccnc3[nH]ccc23)c1 (centres unmarked) [Compound 50]	2.93	8%	89%					
CC(C)(C)n1cc(-c2ccncc2)c(-c2ccc(F)cc2)n1 [Compound 58]	2.62	42%	89%					
c1ccc(Oc2ccc(-c3c(-c4ccncc4)cnn3C3CCCCO3)cc2)cc1 (centres unmarked) [Compound 59, 4-[5-(4-phenoxyphenyl)-1-(tetrahydro-2H-pyran-2-yl)-1H-pyrazol-4-yl]pyridine]	1.88	0%	95%					
N#Cc1cccc(-c2c(-c3ccncc3)cnn2C2CCCCO2)c1 (centres unmarked) [Compound 60, 3-[4-(pyridin-4-yl)-1-(tetrahydro-2H-pyran-2-yl)-1H-pyrazol-5-yl]benzonitrile]	1.23	92%	100%					
Fc1ccc(-c2nn(C3CCCCO3)cc2-c2ncnc3[nH]ccc23)cc1 (centres unmarked) [Compound 66]	1.69	40%	85%					
Clc1ccc(-c2c(-c3ccncc3)cnn2C2CCCCO2)cc1 (centres unmarked) [Compound 70, 4-[5-(4-chlorophenyl)-1-(tetrahydro-2H-pyran-2-yl)-1H-pyrazol-4-yl]pyridine]	1.52	0%	92%					
CCC(=O)Nc1cc(-c2cn(OC(C)C)nc2-c2ccc(F)cc2)ccn1 [Compound 226]				2.58	95%	85%	100%	95%
CC(C)Cn1cc(-c2ccncc2-c2cccc(F)c2)c(-c2ccc(F)cc2)n1 [Compound 229]				3.13	94%	0%	97%	95%
CC(C)C(=O)Nc1cc(-c2cn(C(C)c3ccccc3F)nc2-c2ccc(F)cc2)ccn1 (centres unmarked) [Compound 232]				3.41	93%	0%	80%	95%
CC(C)n1cc(-c2ccnc(NC(=O)N(C)C)c2)c(-c2ccc(F)cc2)n1 [Compound 233]				1.6	95%	100%	100%	90%
COCC(=O)Nc1cc(-c2cn(CC3CC3(Cl)Cl)nc2-c2ccc(F)cc2)ccn1 (centres unmarked) [Compound 245]				3.22	88%	95%	99%	94%
Cn1nc(-c2ccc(F)cc2O)c(-c2ccnc(NC(=O)C3CC3)c2)c1OC(F)F [Compound 258]				2.22	80%	79%	98%	95%
CCOC(=O)Nc1cc(-c2cn(CC(C)C)nc2-c2ccc(F)cc2)ccn1 [Compound 267]				3.11	98%	59%	97%	95%
COCC(=O)Nc1cc(-c2cn(C(C)CC#N)nc2-c2ccc(F)cc2)ccn1 (centres unmarked) [Compound 313]				2.17	98%			95%
CC(C)C(=O)Nc1cc(-c2cn(C(C)CC#N)nc2-c2ccc(F)cc2)ccn1 (centres unmarked) [Compound 314]				1.29	100%			100%
CC(CC#N)n1cc(-c2ccnc(NC(=O)CC3CC3)c2)c(-c2ccc(F)cc2)n1 (centres unmarked) [Compound 315]				2.28	95%			95%
CCC(=O)Nc1cc(-c2c(-c3ccc(F)cc3)nn(C)c2OC(F)F)ccn1 [Compound 316]				2.33	75%			100%
CCC(=O)Nc1cc(-c2cn(C3CC3)nc2-c2ccc(F)cc2)ccn1 [Compound 320]				1.97	94%			95%
CC(C)C(=O)Nc1cc(-c2cn(C3CC3)nc2-c2ccc(F)cc2)ccn1 [Compound 322]				2.32	95%			95%
O=C(CC1CC1)Nc1cc(-c2cn(C3CC3)nc2-c2ccc(F)cc2)ccn1 [Compound 323]				2.48	86%			95%

Compound	chromatographic logP [1, 6]	inhibition at 50 µM [2, 7]	inhibition at 50 µM [2, 8]	chromatographic logP ([1]; LogPA)	pest or weed control at 500 ppm [3]	inhibition at 50 µM [4, 9]	inhibition at 50 µM [4, 10]	pest or weed control at 500 ppm [5]
CCOCCn1cc(-c2ccnc(NC(=O)CC)c2)c(-c2ccc(F)cc2)n1 [Compound 326]				2.01	94%	107%	100%	95%
CCOCCn1cc(-c2ccnc(NC(=O)C(C)C)c2)c(-c2ccc(F)cc2)n1 [Compound 328]				2.32	100%	101%	100%	95%
CCOCCn1cc(-c2ccnc(NC(=O)CC3CC3)c2)c(-c2ccc(F)cc2)n1 [Compound 329]				2.48	94%	104%	100%	95%
CCn1cc(-c2ccnc(NC(=O)[C@@H]3C[C@H]3c3ccccc3)c2)c(-c2ccc(F)cc2)n1 [Compound 337]				3.06	88%			95%
CCn1cc(-c2ccnc(NC(=O)CC3CCCC3)c2)c(-c2ccc(F)cc2)n1 [Compound 338]				3.87	91%			80%
CCn1cc(-c2ccnc(NC(=O)CC(C)C)c2)c(-c2ccc(F)cc2)n1 [Compound 339]				3.47	95%			95%
CCC(C)C(=O)Nc1cc(-c2cn(CC)nc2-c2ccc(F)cc2)ccn1 (centres unmarked) [Compound 340]				2.42	95%			95%
CCn1cc(-c2ccnc(NC(=O)C3CC3C)c2)c(-c2ccc(F)cc2)n1 (centres unmarked) [Compound 341]				2.16	100%			95%
CCn1cc(-c2ccnc(NC(C)=O)c2)c(-c2ccc(F)cc2)n1 [Compound 342]				1.57	94%			95%
CC(C)CC(=O)Nc1cc(-c2cn(C)nc2-c2ccc(F)cc2)ccn1 [Compound 347]				2.12	95%			95%
CCC(C)C(=O)Nc1cc(-c2cn(C)nc2-c2ccc(F)cc2)ccn1 (centres unmarked) [Compound 348]				2.14	95%			95%
Cn1cc(-c2ccnc(NC(=O)C3CCC3)c2)c(-c2ccc(F)cc2)n1 [Compound 349]				1.93	95%			80%
CC(=O)Nc1cc(-c2cn(C)nc2-c2ccc(F)cc2)ccn1 [Compound 350]				1.32	94%			95%
CCn1cc(-c2ccnc(NC(=O)C(N)=O)c2)c(-c2ccc(F)cc2)n1 [Compound 351]				1.99	80%			95%
CCn1cc(-c2ccnc(NC(=O)[C@H](C)O)c2)c(-c2ccc(F)cc2)n1 [Compound 352]				1.83	73%			95%
CC(C)n1cc(-c2ccnc(N)n2)c(-c2ccc(F)cc2)n1 [Compound 366]				1.54	94%			80%
Cc1c(-c2ccncc2)c(-c2ccc(F)cc2)nn1CC(F)F [Compound 367]				1.49	84%			95%
Cc1c(-c2ccncc2)c(-c2ccc(F)cc2)nn1CC(C)C [Compound 368]				2.07	94%			95%
CC(C)n1cc(-c2ccnc(NCc3ccccc3)n2)c(-c2ccc(F)cc2)n1 [Compound 369]				3.31	88%			90%
CC(C)Nc1nccc(-c2cn(C(C)C)nc2-c2ccc(F)cc2)n1 [Compound 371]				2.92	94%			95%
